Results on 1 compound are retold here after US20050187288A1, “Beta-lapachone and methods of treating cancer” (priority 2004, published 2005).

Data set [1] is described as follows: Study 4B: cardiovascular, pulmonary study in anesthetized dogs. Type of data set: in vivo. As for the experimental part: In Study No. 4B, adult female Beagle dogs (one male in control group) were randomized into three study groups (3 animals/group) as shown in Table 17.
For measurement of cardiovascular function, a lead II ECG was obtained with subdermal needle electrodes and an ECG signal conditioner. Heart rate (HR) was measured with a pulse rate tachometer. The right femoral artery was cannulated with a catheter connected to a pressure transducer and pressure processor for recording mean, systolic and diastolic arterial blood pressure (BP). The left femoral artery was exposed by a flank incision and a probe (2.5 mm i.d.) connected to an electromagnetic flowmeter was placed around the artery for measurement of blood flow (BF). […] For measurement of pulmonary function, a 5.0 mm endotracheal tube connected to a pneumotachograph recorded integrated flow to yield a continuous recording of respiratory rate (RR). Intrapleural pressure was obtained from an esophageal balloon placed in the lower third of the esophagus. Transpulmonary pressure, the difference between thoracic (i.e. the external end of the endotracheal tube) and pleural pressure, was measured with a differential pressure transducer. Measurements of respiratory flow and transpulmonary pressure were used to compute total lung resistance (RL) and dynamic compliance (CDYN).
All parameters were measured and recorded immediately before (0 minute) and 5, 10, 30, 60, 90 and 120 minutes after start of the infusion. The mean±SEM value and the percentage relative to pretreatment values at each observation time point after dosing were calculated, and Dunnett's test was applied for comparison between vehicle control group and test substance treated group at the relative observation time interval. Differences were considered significant at p<0.05 level.

The next data set relates to E2F1. The data set can be described thus: E2F1 induction. The format is cell-based, human. On the set-up: key: “+” symbol represents overexpression of E2F1 relative to a control.
Data set [2] deals with HT-29 human colon cancer cells. The data set can be described thus: Human colon cancer xenograft model. The format is in vivo, mice. As for the experimental part: The animals were randomized into three groups. […] Mean tumor volume was then analyzed.
The test system of another data set is G480 lung cancer cells. Briefly: Colony formation assay, single agents and combination. The format is cell-based. From the text: Control plates received the same volume of DMSO alone. […] Treated wells were presented as percentage of control. Data were presented as an average (+SEM) from three independent experiments.
A further data set has as its system DU-145. The data set can be described thus: cells. Conditions: Homo sapiens, DU-145, read-out: LC50 (Replicate Results), DU-145, 4 hour exposure, colonies after 14-21 days.
The subject of another data set is MCF-7. Briefly: cells. Conditions: Homo sapiens, MCF7, read-out: LC50 (Replicate Results), MCF-7, 4 hour exposure, colonies after 14-21 days.
Data set [3] in a line: Study 1A: repetitive weekly intravenous toxicity study in rats.
[4] abbreviates: 40 mg/kg, by the end of the infusion.
Where [5] appears, read: 4 μM for 4 hours, vs carrier alone.

Experimental for DU-145: (§1) Control plates received the same volume of DMSO alone. After a 4 hour exposure the drug was carefully removed, and drug-free medium could be added. […] Colonies of greater than 50 cells were scored as survivors. Cells were maintained at 37° C. in 5% CO2 in complete humidity.
Experimental for MCF-7: as §1

As to `CC1(C)CCC2=C(O1)c1ccccc1C(=O)C2=O` [β-lapachone, 3,4-dihydro-2,2-dimethyl-2H-naphtho [1,2-b]pyran-5,6-dione], in data set [1] (20 mg/kg, at 60 minutes), the “reduction of tidal volume” value turned out to be 16%. In data set [1] (40 mg/kg), the dynamic compliance entry is given as “approximately 52 % of normal” and the “increase of pulmonary resistance” value was “approximately 50%”. Besides, in data set [1] (setting [4]), the “decrease in tidal volume” value is 41% and the respiratory rate entry is reported as “four-fold increase”. The “effects on cardiovascular function (BP, blood flow, heart rate, ECG incl. QTc)” value in data set [1] (up to and including 40 mg/kg over 1 hour) is “no significant effects on cardiovascular function”. In addition, the “E2F1 Induction” value with E2F1 (Colon HT-29) is “+”. The “E2F1 Induction” value in the data set with E2F1 (Colon SW480) is “+”. In the data set on E2F1 (Pancreas PANC1), the “E2F1 Induction” value was “+”. Besides, the “reduction of mean tumor volume” value in data set [2] (60 mg/kg IP every three days, 10 treatments) was “approximately 75%”. The toxicity result in data set [2] (mouse, in vivo) was “No sign of significant toxicity”. For the same compound, in the data set on G480 lung cancer cells (setting [5]), the cell death is recorded as 68% and the survival of cells is reported as 32%. Also, the “Colonies (percent control)” value with G480 lung cancer cells (G480, β-lapachone 4 μM, 4 hours, average (SEM) of three experiments) is 32 (0.3) percent control. Besides, the CC50 in the data set with DU-145 was determined as 1100 nM. The CC50 in the data set on MCF-7 was 1450 nM. For the same compound, the NOEL in data set [3] (Study 1A) came out at 10 mg/kg/dose. For the same compound, the “bilirubin (slight increase)” value in data set [3] (high dose animals, Days 2 and 23, ULN 0.27 mg/dl) amounted to 0.33 mg/dL. Moreover, the decrease in hemoglobin in data set [3] (mid- and high-dose animals, normalized by Day 37) is less than 2 g/dL.
